In patent US8629169B2, “4-substituted-3-phenylsulfanylmethyl-bicyclo[3.1.0]hexane compounds as mGluR 2/3 antagonists” (Eli Lilly and Company, priority 2010, dated 2014):

Experiments:
[1] = biological target: T1, human mGlu3 receptor (Homo sapiens, UniProt Q14832); experiment: mGlu3 receptor cAMP antagonist assay; format: cell-based; conditions: reversal of DCG IV (EC90) inhibition of forskolin-stimulated cAMP; relative IC50
T1 construct: expressed in transfected cells; host or cells: AV12 cells co-expressing rat EAAT1
Method: (§1) Antagonist activity is assayed in recombinant AV12 cells stably expressing human mGlu2 or mGlu3 receptors and the rat glutamate transporter EAAT1 (Excitatory Amino Acid Transporter 1). The cell lines are maintained by culturing in DMEM with high glucose and pyridoxine hydrochloride supplemented with 5% dialyzed fetal bovine serum (FBS), 1 mM sodium pyruvate, 1 mM HEPES and 1 mM L-glutamine; geneticin and hygromycin B are used as selection antibiotics.
(§2) Reversal of the inhibition of forskolin-stimulated cAMP production by test compounds is measured using homogeneous time resolved fluorescence technology (HTRF; Cisbio cat #62AM4PEB). The medium is removed and the cells are incubated with 100 μl cAMP stimulation buffer (STIM) for 30 minutes at 37° C. […] Cells are incubated at 37° C. for 20 minutes. To measure the cAMP levels, cAMP-d2 conjugate and anti cAMP-cryptate conjugate in lysis buffer are incubated with the treated cells at room temperature for 1 hour (mGlu2) or 1.5 hour (mGlu3). […] The raw data are converted to cAMP amount (pmole/well) using a cAMP standard curve generated for each experiment. Relative IC50 values are calculated from the top-bottom range of the concentration response curve using a four-parameter logistic curve fitting program (ActivityBase v5.3.1.22).

[2] = biological target: T2, human mGlu5 receptor (Homo sapiens, UniProt P41594); experiment: FLIPR calcium antagonist assay for mGlu receptor selectivity, mGlu5; format: cell-based; conditions: inhibition of EC90 glutamate response, read-out: mGlu5 % inhib. @12.5 μM
T2 construct: expressed in transfected cells; host or cells: AV12 cells co-expressing rat EAAT1
Description: (§3) The relative antagonist potencies of the compounds of the invention for the other human mGlu receptors can be assessed with either a cAMP assay or fluorometric calcium response assay (see for example Fell et al., JPET (in press)). Briefly, individual AV12 cell lines containing the rat EAAT1 glutamate transporter and stably expressing the human mGlu1, 2, 3, 4, 5, 6, & 8 receptors are used for these studies. The mGlu1 and 5 receptors are Gq-coupled, so they naturally signal through phospholipase C, producing a calcium flux response which can be used to measure receptor activation using a Fluorometric Imaging Plate Reader (FLIPR, Molecular Devices). […]
(§4) Intracellular calcium levels are monitored using FLIPR before and after the addition of test compounds and Fluo-3 AM (Invitrogen) or Calcium 4 (Molecular Devices) dye, depending on the cell line. […] The results are analyzed using GraphPad Prism v4.03 to calculate the concentrations of glutamate needed to induce the EC90 (antagonist assay) and EC10 (potentiator assay) responses.
(§5) Compounds are tested at each mGlu receptor in a two-addition FLIPR assay using a 10-point concentration response profile starting at a final concentration of 25 μM for the agonist assay and 12.5 μM for the potentiator and antagonist assays. […] Agonist effects are quantified as percent stimulation induced by compound alone relative to the maximal glutamate response. […]

[3] = tested on: male NIH-Swiss mice; experiment: Forced-swim test in mice (mFST); format: in vivo, mouse; conditions: for ED60 (mg/kg): immobility, last 4 min of 6 min; for Maximal Decrease (1 − compound/control) * 100%: immobilization time
[4] = biological target: T3, human mGlu2 receptor (Homo sapiens, UniProt Q14416); experiment: mGlu2 receptor cAMP antagonist assay; format: cell-based; conditions: reversal of DCG IV (EC90) inhibition of forskolin-stimulated cAMP; relative IC50
T3 construct: expressed in transfected cells; host or cells: AV12 cells co-expressing rat EAAT1
Method: as §1, §2

[5] = biological target: T4, human mGlu4 receptor (Homo sapiens, UniProt Q14833); experiment: FLIPR calcium antagonist assay for mGlu receptor selectivity, mGlu4; format: cell-based; conditions: inhibition of EC90 glutamate response, read-out: mGlu4 % inhib. @12.5 μM
T4 construct: expressed in transfected cells; host or cells: AV12 cells co-expressing rat EAAT1 and Galpha15
Description: as §3, §4, §5

[6] = biological target: T5, human mGlu1 receptor (Homo sapiens, UniProt Q13255); experiment: FLIPR calcium antagonist assay for mGlu receptor selectivity, mGlu1; format: cell-based; conditions: inhibition of EC90 glutamate response, read-out: mGlu1 % inhib. @12.5 μM
T5 construct: expressed in transfected cells; host or cells: AV12 cells co-expressing rat EAAT1
Description: as §3, §4, §5

[7] = biological target: T6, human mGlu8 receptor (Homo sapiens, UniProt O00222); experiment: FLIPR calcium antagonist assay for mGlu receptor selectivity, mGlu8; format: cell-based
T6 construct: expressed in transfected cells; host or cells: AV12 cells co-expressing rat EAAT1 and Galpha15
Description: (§6) The relative antagonist potencies of the compounds of the invention for the other human mGlu receptors can be assessed with either a cAMP assay or fluorometric calcium response assay (see for example Fell et al., JPET (in press)). Briefly, individual AV12 cell lines containing the rat EAAT1 glutamate transporter and stably expressing the human mGlu1, 2, 3, 4, 5, 6, & 8 receptors are used for these studies. The mGlu1 and 5 receptors are Gq-coupled, so they naturally signal through phospholipase C, producing a calcium flux response which can be used to measure receptor activation using a Fluorometric Imaging Plate Reader (FLIPR, Molecular Devices). The cell lines expressing the mGlu2, 3, 4, and 8 receptor are designed to express the Gα15 subunit so that these Gi-coupled receptors will generate a calcium flux response similar to the mGlu1 and 5 receptor expressing cell lines. The mGlu6 receptor is tested in a cAMP format using methods analogous to those developed for mGlu2 and mGlu3 above. These cell lines are maintained as previously described except that amounts of L-glutamine and selection agents (geneticin, hygromycin B, zeocin, and blasticidin) may vary depending on the cell line. Confluent cultures are passaged biweekly.
Intracellular calcium levels are monitored using FLIPR before and after the addition of test compounds and Fluo-3 AM (Invitrogen) or Calcium 4 (Molecular Devices) dye, depending on the cell line. Cells are plated 24 hours prior to assay in a variable concentration of glutamine and a variable density of cells per well, depending on the cell line. The medium is removed and the cells are incubated with 8 μM of dye (50 μl per well) for 90 or 120 minutes (depending on cell line) at 25° C. […] The results are analyzed using GraphPad Prism v4.03 to calculate the concentrations of glutamate needed to induce the EC90 (antagonist assay) and EC10 (potentiator assay) responses.
Compounds are tested at each mGlu receptor in a two-addition FLIPR assay using a 10-point concentration response profile starting at a final concentration of 25 μM for the agonist assay and 12.5 μM for the potentiator and antagonist assays. […] Agonist effects are quantified as percent stimulation induced by compound alone relative to the maximal glutamate response. Antagonist effects are quantified by calculating the percent inhibition of the EC90 glutamate response caused by the compound. Potentiation effects are quantified as percent increase in the presence of an EC10 response in glutamate relative to the ECmax response. All data are calculated as relative IC50 or EC50 values using a four-parameter logistic curve fitting program (ActivityBase v5.3.1.22).

[8] = biological target: T7, human mGlu6 receptor (Homo sapiens, UniProt O15303); experiment: mGlu6 cAMP antagonist assay (reference agonist L-AP4); format: cell-based; conditions: cAMP format
T7 construct: expressed in transfected cells; host or cells: AV12 cells co-expressing rat EAAT1
Description: as §6, with “These cell lines are maintained as previously described except that amounts of L-glutamine and selection agents (geneticin, hygromycin B, zeocin, and blasticidin) may vary depending on the cell line. Confluent cultures are passaged biweekly.” left out
Antagonist activity in mGlu6 cells is measured using cAMP in a method analogous to that described above for mGlu2 and mGlu3 activity, except that the reference agonist was L-AP4 (Tocris). […] Relative IC50 and EC50 values are calculated from the top-bottom range of the concentration response curve using a four-parameter logistic curve fitting program (ActivityBase v5.3.1.22).

[9] = tested on: mGlu2+/+ and mGlu2−/− mice; experiment: mFST in mGlu2 knock-out mice and +/+ littermates
Method: Briefly, male NIH-Swiss mice (Harlan Sprague-Dawley, Indianapolis, Ind.) weighing between 25-30 g are used. Group housed animals are removed from the vivarium to the testing area in their own cages and allowed to adapt to the new environment for at least 1 hour before testing. […] Mice are placed in a cylinder (diameter: 10 cm; height: 25 cm) filled with 6 cm of water (22-25° C.) for 6 min. The duration of immobility during the last 4 min. of the 6 min. period of the test was scored. A mouse is recorded as immobile when floating motionless or making only those movements necessary to keep its head above water.
In other experiments, mice with receptor deletions (mGlu2 knock-out mice) are studied; these mice are bred by heterozygote×heterozygote breeding and used as littermates for −/− and +/+ mouse comparisons (Taconic Farms).

[10] = tested on: male Wistar rats; experiment: Wakefulness and behavioral monitoring in rats (EEG/EMG/LMA); format: in vivo; conditions: rat; for Locomotor Activity Intensity, mean difference from vehicle controls: averaged over the first 7 hr post-treatment; for Cumulative Time Awake 8-19 hours, mean difference from vehicle controls: rebound hypersomnolence measure
Method: Representative compounds of the present invention are tested in rats for their ability to increase the amount of time in a state of wakefulness without undesired effects such as inhibition of REM sleep, waking motor impairment (disproportionate hyper- or hypolocomotion), and/or rebound hypersomnia Test animals are continuously monitored by electro-encephalograms (EEG), electromyograms (EMG), and motion to measure cumulative time awake, rebound hypersomnia, and locomotor activity intensity during wakefulness. Methods for such studies are known in the art (see for example methods described in Edgar D M, Seidel W F. Modafinil induces wakefulness without intensifying motor activity or subsequent rebound hypersomnolence in the rat. J Pharmacology & Experimental Therapeutics 1997; 283: 757-769; van Gelder R N, Edgar D M, Dement W C. Real-time automated sleep scoring: validation of a microcomputer-based system for mice. Sleep 1991, 14: 48-55; and Gross B A, Walsh C M, Turakhia A A, Booth V, Mashour G A, Poe G R. Open-source logic-based automated sleep scoring software using electrophysiological recordings in rats. J Neurosci Methods. 2009; 184(1):10-8.) Studies are conducted as follows:
Adult, male Wistar rats (approximately 270-300 g at time of surgery) are surgically fitted for chronic recording of EEG, EMG, body temperature, and motion as follows: Rats are surgically prepared with a cranial implant consisting of four stainless steel screws for EEG recording (two frontal [3.9 mm anterior from bregma, and ±2.0 mm mediolaterally] and two occipital [6.4 mm posterior from bregma, ±5.5 mm mediolaterally]), and with two Teflon-coated stainless steel wires for EMG recording (positioned under the nuchal trapezoid muscles). All leads are soldered to a miniature connector (Microtech, Boothwyn, Pa.) prior to surgery. The implant assembly is affixed to the skull by the combination of the stainless steel EEG recording screws, cyanoacrylate applied between the implant connector and skull, and dental acrylic. Body temperature and locomotor activity is monitored via a miniature transmitter (Minimitter PDT4000G, Philips Respironics, Bend, Oreg.) surgically placed into the abdomen. At least 3 weeks are allowed for recovery.
Each rat is housed individually within a microisolator cage modified with an inserted polycarbonate filter-top riser to allow more vertical headroom. A flexible cable that minimally restricts movement is connected at one end to a commutator affixed to the cage top and at the other end to the animal's cranial implant. Each cage is located within separate, ventilated compartments of a stainless steel sleep-wake recording chamber. Food and water are available ad libitum and the ambient temperature is maintained at about 23±1° C. A 24-hr light-dark cycle (LD 12:12) using fluorescent light is maintained throughout the study. Relative humidity averages approximately 50%. Animals are undisturbed for at least 30 hrs before and after each treatment.
The vehicle or one of the compound dose levels is administered pseudo-randomly such that no rat receives the same treatment twice, and no rat receives more than two of the 8 treatments in any one study. Each rat is removed from its cage for about a minute to be weighed and treated. At least 6 days “washout” period precede and follow each treatment.
Sleep and wakefulness discrimination may be automated (e.g., Van Gelder et al. 1991; Edgar et al. 1997, Winrow et al., 2010; Gross et al., 2009).

[11] = tested on: mice; experiment: mFST alone and in combination with SSRI; format: in vivo, mouse; conditions: Example 12 10 mg/kg p.o.
[12] = Brain and plasma exposure levels in the SSRI combination study; conditions: combination with fluoxetine or citalopram versus alone
[13] = citalopram experiment, citalopram 1 mg/kg i.p.
[14] = fluoxetine experiment, fluoxetine 10 mg/kg i.p.

T6 sequence (O00222 34-908): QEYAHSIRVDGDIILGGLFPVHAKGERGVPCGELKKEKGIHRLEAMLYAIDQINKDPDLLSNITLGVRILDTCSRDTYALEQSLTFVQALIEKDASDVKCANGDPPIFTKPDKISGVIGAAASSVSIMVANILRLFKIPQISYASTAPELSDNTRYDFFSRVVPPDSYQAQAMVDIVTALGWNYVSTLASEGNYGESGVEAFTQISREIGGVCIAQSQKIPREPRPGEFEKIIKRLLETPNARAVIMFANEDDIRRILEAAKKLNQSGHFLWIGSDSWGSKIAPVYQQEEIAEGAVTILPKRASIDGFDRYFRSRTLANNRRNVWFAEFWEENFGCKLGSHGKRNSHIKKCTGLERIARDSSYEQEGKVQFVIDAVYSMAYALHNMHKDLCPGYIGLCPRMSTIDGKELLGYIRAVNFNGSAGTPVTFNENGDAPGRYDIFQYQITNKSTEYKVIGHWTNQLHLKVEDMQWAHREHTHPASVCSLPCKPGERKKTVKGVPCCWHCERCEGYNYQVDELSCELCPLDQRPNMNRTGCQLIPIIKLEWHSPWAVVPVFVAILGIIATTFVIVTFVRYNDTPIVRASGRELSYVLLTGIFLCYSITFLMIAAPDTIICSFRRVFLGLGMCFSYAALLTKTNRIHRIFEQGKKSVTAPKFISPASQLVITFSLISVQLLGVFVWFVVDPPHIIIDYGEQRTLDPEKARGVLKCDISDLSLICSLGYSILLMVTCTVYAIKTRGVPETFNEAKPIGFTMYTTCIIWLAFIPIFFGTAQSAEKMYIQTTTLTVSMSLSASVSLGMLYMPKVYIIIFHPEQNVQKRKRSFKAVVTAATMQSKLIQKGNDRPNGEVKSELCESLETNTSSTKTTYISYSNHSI
T4 sequence (Q14833 33-912): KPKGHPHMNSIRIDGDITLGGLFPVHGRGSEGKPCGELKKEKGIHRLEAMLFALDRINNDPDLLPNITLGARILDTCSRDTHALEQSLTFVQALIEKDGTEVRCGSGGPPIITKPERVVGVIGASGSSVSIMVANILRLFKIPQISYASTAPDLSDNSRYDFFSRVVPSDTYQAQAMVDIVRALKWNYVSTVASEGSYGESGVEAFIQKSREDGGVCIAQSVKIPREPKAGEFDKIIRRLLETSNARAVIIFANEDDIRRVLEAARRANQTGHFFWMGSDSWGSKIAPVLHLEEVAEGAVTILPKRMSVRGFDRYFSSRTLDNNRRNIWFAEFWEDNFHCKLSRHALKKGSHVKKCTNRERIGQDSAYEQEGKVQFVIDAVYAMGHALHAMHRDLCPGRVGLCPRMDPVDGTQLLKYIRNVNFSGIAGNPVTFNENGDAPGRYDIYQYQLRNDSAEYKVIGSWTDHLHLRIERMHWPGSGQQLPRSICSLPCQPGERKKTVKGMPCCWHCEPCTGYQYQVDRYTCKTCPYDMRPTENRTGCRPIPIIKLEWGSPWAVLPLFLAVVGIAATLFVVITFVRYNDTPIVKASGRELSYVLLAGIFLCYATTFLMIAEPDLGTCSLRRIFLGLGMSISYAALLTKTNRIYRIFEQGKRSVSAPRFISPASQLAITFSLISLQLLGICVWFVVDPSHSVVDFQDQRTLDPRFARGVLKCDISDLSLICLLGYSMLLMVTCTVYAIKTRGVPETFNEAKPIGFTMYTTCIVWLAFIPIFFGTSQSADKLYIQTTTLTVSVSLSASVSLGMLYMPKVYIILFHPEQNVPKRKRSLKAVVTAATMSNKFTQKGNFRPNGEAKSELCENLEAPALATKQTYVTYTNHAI
T1 sequence (Q14832 23-879): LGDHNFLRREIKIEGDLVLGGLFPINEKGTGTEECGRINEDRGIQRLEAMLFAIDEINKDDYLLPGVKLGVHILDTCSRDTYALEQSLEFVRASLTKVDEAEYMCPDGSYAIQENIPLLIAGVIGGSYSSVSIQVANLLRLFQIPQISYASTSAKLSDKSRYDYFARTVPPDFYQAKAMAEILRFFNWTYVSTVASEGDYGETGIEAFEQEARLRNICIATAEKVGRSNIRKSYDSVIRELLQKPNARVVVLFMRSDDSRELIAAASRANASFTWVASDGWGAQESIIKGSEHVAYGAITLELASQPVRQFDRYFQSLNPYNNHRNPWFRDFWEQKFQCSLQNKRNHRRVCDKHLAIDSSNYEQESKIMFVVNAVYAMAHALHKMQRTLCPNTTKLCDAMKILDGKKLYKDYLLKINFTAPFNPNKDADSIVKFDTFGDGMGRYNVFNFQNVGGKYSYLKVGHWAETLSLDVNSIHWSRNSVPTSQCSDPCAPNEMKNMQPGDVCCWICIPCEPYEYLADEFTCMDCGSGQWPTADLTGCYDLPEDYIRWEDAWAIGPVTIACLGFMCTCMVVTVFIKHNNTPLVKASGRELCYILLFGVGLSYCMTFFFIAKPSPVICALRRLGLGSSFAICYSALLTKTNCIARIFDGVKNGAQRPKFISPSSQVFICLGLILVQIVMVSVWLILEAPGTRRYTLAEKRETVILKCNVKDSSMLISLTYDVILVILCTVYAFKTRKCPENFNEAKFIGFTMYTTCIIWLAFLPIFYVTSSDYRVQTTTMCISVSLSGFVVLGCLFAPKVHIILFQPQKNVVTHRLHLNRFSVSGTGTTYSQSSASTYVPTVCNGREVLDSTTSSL
T7 sequence (O15303 25-877): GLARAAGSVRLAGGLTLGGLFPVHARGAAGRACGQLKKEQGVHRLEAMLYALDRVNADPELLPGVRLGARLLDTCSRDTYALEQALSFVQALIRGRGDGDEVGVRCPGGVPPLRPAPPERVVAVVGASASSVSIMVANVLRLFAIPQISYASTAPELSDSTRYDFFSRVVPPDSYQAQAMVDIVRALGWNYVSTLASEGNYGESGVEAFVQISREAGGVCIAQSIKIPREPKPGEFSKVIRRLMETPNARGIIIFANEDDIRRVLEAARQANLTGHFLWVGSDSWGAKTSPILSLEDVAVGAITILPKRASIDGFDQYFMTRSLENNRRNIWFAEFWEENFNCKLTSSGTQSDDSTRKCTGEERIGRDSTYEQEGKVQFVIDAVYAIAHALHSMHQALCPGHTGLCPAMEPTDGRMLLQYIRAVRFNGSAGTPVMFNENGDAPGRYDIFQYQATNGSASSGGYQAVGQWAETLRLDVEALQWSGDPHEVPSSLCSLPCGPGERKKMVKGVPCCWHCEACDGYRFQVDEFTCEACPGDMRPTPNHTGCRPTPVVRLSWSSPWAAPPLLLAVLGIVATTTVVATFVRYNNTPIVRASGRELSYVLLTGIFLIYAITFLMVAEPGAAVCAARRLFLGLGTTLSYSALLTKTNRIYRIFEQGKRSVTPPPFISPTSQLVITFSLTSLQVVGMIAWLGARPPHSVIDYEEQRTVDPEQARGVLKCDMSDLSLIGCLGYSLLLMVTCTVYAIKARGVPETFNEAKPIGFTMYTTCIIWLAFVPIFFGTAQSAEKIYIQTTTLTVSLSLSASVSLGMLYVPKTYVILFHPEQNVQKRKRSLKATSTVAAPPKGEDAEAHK
T5 sequence (Q13255 19-1194): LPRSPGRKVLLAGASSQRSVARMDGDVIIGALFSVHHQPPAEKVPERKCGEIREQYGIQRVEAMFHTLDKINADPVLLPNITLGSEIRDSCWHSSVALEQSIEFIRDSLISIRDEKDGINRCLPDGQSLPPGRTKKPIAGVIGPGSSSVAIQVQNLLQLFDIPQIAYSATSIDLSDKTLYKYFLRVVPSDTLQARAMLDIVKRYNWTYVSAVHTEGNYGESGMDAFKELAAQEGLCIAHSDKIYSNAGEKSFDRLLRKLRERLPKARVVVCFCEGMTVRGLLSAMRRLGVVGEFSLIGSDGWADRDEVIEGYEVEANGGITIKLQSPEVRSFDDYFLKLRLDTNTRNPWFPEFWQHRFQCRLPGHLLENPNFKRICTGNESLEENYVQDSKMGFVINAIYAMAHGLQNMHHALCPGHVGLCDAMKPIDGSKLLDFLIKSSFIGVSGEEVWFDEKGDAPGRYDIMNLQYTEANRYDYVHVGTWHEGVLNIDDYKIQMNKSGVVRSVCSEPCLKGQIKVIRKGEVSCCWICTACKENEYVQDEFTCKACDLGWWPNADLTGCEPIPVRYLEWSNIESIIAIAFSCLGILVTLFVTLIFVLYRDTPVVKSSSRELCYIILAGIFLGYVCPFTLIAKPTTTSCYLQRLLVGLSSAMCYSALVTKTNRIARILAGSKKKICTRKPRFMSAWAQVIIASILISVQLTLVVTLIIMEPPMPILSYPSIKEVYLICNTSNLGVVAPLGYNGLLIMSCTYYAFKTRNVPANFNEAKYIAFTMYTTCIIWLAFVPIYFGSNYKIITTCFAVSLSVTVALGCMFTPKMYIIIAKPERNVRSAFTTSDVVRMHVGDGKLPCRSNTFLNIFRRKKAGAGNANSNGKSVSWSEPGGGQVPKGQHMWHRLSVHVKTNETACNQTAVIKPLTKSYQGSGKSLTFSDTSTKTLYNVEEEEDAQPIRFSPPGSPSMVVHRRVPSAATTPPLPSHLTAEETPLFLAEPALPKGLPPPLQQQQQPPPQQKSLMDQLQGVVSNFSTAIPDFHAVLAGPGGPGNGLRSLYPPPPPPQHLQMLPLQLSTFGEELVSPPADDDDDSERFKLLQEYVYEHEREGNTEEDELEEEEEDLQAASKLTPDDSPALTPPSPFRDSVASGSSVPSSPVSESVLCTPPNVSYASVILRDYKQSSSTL

Cl.N[C@]1(C(=O)O)[C@@H]2[C@@H](C(=O)O)[C@@H]2[C@H](O)[C@H]1CSc1ccc(F)c(Cl)c1 [Example 2, (1S,2R,3S,4S,5R,6R)-2-Amino-3-{[(3-chloro-4-fluorophenyl)sulfanyl]methyl}-4-hydroxybicyclo[3.1.0]hexane-2,6-dicarboxylic acid hydrochloride]
IC50 [1]: 13.4 ± 3.4 nM
inhibition at 12.5 µM [2]: 21.4%
ED60 (mg/kg) ([3]; i.p.): 24.5 (i.p.) mg/kg
Maximal Decrease (1 − compound/control) * 100% ([3]; i.p.): 33.5%
IC50 [4]: 12.7 ± 2.3 nM
inhibition at 12.5 µM [5]: 28%
inhibition at 12.5 µM [6]: 7.9%
inhibition at 12.5 µM ([7]; 12.5 μM, inhibition of EC90 glutamate response, read-out: mGlu8 % inhib. @12.5 μM): 68.7%
IC50 ([7]; FLIPR antagonist, in brackets under % inhib.): 7860 nM
IC50 [8]: 1390 nM
immobility time in mGlu2+/+ mice ([9]; 10 mg/kg, i.p., 30 min prior): significantly decrease immobility time

CC(C)OC(=O)OCOC(=O)[C@H]1[C@@H]2[C@H](O)[C@@H](CSc3ccc(F)c(F)c3)[C@@](N)(C(=O)OCOC(=O)OC(C)C)[C@H]12.Cl [Example 12, Bis({[(1-methylethoxy)carbonyl]oxy}methyl)(1S,2R,3S,4S,5R,6R)-2-amino-3-{[(3,4-difluorophenyl)sulfanyl]methyl}-4-hydroxybicyclo[3.1.0]hexane-2,6-dicarboxylate hydrochloride]
ED60 (mg/kg) ([3]; p.o.): 12.0 (p.o.) mg/kg
Maximal Decrease (1 − compound/control) * 100% ([3]; p.o.): 58.4%
Cumulative Time Awake first 7 hours, mean difference from vehicle controls ([10]; 10 mg/kg PO): 40.2 min
Locomotor Activity Intensity, mean difference from vehicle controls ([10]; 10 mg/kg PO): 4.5 counts of LMA per minute of EEG-defined wakefulness
Cumulative Time Awake 8-19 hours, mean difference from vehicle controls ([10]; 10 mg/kg PO): 12.1 min
Cumulative Time Awake first 7 hours, mean difference from vehicle controls ([10]; 30 mg/kg PO): 109.3 min
Locomotor Activity Intensity, mean difference from vehicle controls ([10]; 30 mg/kg PO): 3.0 counts of LMA per minute of EEG-defined wakefulness
Cumulative Time Awake 8-19 hours, mean difference from vehicle controls ([10]; 30 mg/kg PO): -4.1 min
Cumulative Time Awake first 7 hours, mean difference from vehicle controls ([10]; 60 mg/kg PO): 118.9 min
Locomotor Activity Intensity, mean difference from vehicle controls ([10]; 60 mg/kg PO): 4.9 counts of LMA per minute of EEG-defined wakefulness
Cumulative Time Awake 8-19 hours, mean difference from vehicle controls ([10]; 60 mg/kg PO): 2.7 min
Immobilization Time [11, 13]: 140 s
Maximal Decrease (1 − compound/control) * 100% [11, 13]: 20.9%
Immobilization Time [11, 14]: 130 s
Maximal Decrease (1 − compound/control) * 100% [11, 14]: 24.5%
brain and plasma levels of the active di-acid moiety [12]: no increase in exposure levels
immobility time in mGlu2+/+ mice ([9]; 30 mg/kg, po, 120 min prior): decrease immobility time
